Among the data in ChEMBL document CHEMBL1811872, “Tryptophan 2,3-dioxygenase (TDO) inhibitors. 3-(2-(pyridyl)ethenyl)indoles as potential anticancer immunomodulators” (J Med Chem, 2011) are inhibition and Activity values, retold here.

Test [1] in a line: Displacement of [3H]prazosin from adrenergic alpha1 receptor at 10 uM relative to control. A general note: Loss of bound radioactivity is the signal in a displacement assay; it reports binding, not function.
Test [2] in a line: Displacement of [3H]RX821002 from adrenergic alpha2 receptor at 10 uM relative to control.
For test [3], the target named is Beta-1 adrenergic receptor (Homo sapiens) (UniProt P08588). Briefly: Displacement of [3H](-)-CGP12177 from human adrenergic beta1 receptor at 10 uM relative to control.
Beta-1 adrenergic receptor (Homo sapiens), sequence (P08588 whole entry, looked up): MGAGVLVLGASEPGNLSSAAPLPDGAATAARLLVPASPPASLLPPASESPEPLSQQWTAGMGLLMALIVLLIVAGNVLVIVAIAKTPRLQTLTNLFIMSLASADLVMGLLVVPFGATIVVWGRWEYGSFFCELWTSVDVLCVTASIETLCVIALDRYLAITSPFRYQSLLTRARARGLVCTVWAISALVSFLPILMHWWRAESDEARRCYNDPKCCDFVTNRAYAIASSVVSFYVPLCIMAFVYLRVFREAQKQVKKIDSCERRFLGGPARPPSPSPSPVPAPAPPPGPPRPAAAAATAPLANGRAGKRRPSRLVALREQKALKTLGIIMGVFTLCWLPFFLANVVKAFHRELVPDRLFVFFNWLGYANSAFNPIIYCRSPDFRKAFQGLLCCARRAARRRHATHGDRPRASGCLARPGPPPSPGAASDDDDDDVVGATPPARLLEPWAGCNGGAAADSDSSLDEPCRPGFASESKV
Test [4] has as its target Beta-2 adrenergic receptor (Homo sapiens) (UniProt P07550). The test can be described thus: Displacement of [3H](-)-CGP12177 from human adrenergic beta2 receptor at 10 uM relative to control.
In test [5] the target is D(1A) dopamine receptor (Homo sapiens) (UniProt P21728). Briefly: Displacement of [3H]SCH23390 from human dopamine D1 receptor at 10 uM relative to control.
Test [6] addresses D(2) dopamine receptor (Homo sapiens) (UniProt P14416). The test can be described thus: Displacement of [3H]methyl-spiperone from human dopamine D2s receptor at 10 uM relative to control.
Test [7] deals with Melatonin receptor type 1A (Homo sapiens) (UniProt P48039). The test can be described thus: Displacement of [125I]2-iodomelatonin from human MT1 receptor at 10 uM relative to control.
Melatonin receptor type 1A (Homo sapiens), sequence (P48039 whole entry): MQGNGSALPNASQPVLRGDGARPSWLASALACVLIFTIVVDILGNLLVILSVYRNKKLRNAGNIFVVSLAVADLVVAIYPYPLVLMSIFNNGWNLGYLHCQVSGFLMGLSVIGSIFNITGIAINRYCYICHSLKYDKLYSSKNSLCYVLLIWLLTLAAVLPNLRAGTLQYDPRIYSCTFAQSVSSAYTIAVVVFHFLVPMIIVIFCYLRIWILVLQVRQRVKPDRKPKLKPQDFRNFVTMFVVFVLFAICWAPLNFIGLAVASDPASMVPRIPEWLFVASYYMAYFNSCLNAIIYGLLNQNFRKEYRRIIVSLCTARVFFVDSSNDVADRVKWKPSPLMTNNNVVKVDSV
For test [8], the target named is T1, 5-hydroxytryptamine receptor 1A (Homo sapiens) (UniProt P08908).
T1 sequence (whole entry): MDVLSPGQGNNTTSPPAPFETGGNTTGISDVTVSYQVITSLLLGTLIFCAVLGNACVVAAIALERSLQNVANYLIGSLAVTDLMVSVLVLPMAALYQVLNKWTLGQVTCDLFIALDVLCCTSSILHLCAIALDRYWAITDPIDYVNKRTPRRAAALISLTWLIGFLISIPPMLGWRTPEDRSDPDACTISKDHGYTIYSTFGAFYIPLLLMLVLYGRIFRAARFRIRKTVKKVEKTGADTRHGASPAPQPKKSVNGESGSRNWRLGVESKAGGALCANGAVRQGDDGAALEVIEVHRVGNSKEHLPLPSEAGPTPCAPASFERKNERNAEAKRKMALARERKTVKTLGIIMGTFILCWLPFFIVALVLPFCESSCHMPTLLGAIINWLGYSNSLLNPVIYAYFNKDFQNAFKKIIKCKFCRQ
Briefly: Displacement of [3H]8-OH-DPAT from human 5HT1A receptor at 10 uM relative to control.

Test [9] deals with 5-hydroxytryptamine receptor 1B (Homo sapiens) (UniProt P28222). Briefly: Displacement of [125I]CYP from human 5HT1B receptor at 10 uM relative to control.
The target of test [10] is 5-hydroxytryptamine receptor 2A (Homo sapiens) (UniProt P28223). The test can be described thus: Displacement of [3H]ketanserin from human 5HT2A receptor at 10 uM relative to control.
5-hydroxytryptamine receptor 2A (Homo sapiens), sequence (P28223 whole entry): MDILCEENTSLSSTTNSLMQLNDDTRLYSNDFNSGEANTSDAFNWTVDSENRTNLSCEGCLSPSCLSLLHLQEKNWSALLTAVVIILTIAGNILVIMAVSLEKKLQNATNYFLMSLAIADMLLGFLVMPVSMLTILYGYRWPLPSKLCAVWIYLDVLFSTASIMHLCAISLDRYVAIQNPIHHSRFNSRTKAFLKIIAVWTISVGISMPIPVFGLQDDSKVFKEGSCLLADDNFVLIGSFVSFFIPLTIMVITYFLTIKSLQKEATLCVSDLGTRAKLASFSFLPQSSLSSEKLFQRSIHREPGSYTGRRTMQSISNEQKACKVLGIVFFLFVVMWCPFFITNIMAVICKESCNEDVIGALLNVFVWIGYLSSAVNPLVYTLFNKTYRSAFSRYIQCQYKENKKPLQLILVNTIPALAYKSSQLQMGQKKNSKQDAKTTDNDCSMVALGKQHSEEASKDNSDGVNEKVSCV
The target in test [11] is 5-hydroxytryptamine receptor 2B (Homo sapiens) (UniProt P41595). The test can be described thus: Displacement of [125I](+/-)-DOI from human 5HT2B receptor at 10 uM relative to control.
Test [12] deals with T2, 5-hydroxytryptamine receptor 3A (Homo sapiens) (UniProt P46098).
T2 sequence (whole entry): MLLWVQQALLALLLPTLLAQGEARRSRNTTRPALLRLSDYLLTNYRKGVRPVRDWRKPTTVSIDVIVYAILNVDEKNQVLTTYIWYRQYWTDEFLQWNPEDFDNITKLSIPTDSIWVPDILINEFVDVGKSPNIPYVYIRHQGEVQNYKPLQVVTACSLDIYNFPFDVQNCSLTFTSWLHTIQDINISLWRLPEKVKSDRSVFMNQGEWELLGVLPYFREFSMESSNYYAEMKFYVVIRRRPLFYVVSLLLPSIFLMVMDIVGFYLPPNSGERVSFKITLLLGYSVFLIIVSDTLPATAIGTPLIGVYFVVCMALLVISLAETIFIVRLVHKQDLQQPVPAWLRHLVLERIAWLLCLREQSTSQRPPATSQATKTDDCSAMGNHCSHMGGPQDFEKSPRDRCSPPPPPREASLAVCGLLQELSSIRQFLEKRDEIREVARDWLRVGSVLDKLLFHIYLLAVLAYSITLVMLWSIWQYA
The test can be described thus: Displacement of [3H]BRL43694 from human 5HT3 receptor at 10 uM relative to control.

Test [13] addresses 5-hydroxytryptamine receptor 5A (Homo sapiens) (UniProt P47898). Briefly: Displacement of [3H]LSD from human 5HT5A receptor at 10 uM relative to control.
Test [14] deals with 5-hydroxytryptamine receptor 6 (Homo sapiens) (UniProt P50406). The test can be described thus: Displacement of [3H]LSD from human 5HT6 receptor at 10 uM relative to control.
5-hydroxytryptamine receptor 6 (Homo sapiens), sequence (P50406 whole entry): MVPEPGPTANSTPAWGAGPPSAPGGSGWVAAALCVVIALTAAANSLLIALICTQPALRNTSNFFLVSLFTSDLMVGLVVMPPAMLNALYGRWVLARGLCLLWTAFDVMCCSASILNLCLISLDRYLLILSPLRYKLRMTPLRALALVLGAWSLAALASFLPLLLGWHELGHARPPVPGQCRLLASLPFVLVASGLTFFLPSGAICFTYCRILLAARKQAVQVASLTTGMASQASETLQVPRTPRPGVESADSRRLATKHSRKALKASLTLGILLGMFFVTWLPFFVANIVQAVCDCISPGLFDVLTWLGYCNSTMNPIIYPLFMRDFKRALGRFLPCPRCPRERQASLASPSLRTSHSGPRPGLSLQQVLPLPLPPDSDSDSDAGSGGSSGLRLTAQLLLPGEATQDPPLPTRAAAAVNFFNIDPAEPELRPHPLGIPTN
Test [15] addresses 5-hydroxytryptamine receptor 7 (Homo sapiens) (UniProt P34969). Briefly: Displacement of [3H]LSD from human 5HT7 receptor at 10 uM relative to control.
The target of test [16] is Sodium-dependent noradrenaline transporter (Homo sapiens) (UniProt P23975). The test can be described thus: Displacement of [3H]nisoxetine from human NE transporter at 10 uM relative to control.
In test [17] the target is Sodium-dependent dopamine transporter (Homo sapiens) (UniProt Q01959). Briefly: Displacement of [3H]BTCP from human DA transporter at 10 uM relative to control.
Sodium-dependent dopamine transporter (Homo sapiens), sequence (Q01959 whole entry): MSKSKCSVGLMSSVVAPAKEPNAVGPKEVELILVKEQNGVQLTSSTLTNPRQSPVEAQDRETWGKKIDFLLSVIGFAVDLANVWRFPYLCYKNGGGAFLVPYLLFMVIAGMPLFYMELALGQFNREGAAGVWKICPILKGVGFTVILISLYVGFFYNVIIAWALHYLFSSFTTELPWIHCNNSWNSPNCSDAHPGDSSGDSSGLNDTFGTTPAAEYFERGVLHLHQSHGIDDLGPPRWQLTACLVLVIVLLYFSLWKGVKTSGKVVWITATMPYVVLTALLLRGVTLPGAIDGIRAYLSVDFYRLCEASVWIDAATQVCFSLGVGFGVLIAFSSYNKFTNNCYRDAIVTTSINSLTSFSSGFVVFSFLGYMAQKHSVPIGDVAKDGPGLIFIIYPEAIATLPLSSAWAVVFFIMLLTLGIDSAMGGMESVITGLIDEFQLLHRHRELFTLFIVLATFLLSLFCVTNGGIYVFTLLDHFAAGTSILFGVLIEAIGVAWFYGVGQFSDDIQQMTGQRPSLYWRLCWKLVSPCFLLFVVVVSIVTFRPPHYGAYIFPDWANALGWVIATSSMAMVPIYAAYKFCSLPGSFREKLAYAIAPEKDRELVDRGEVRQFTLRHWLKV
The target in test [18] is Sodium-dependent serotonin transporter (Homo sapiens) (UniProt P31645). Briefly: Displacement of [3H]imipramine from human 5HT transporter at 10 uM relative to control.
Sodium-dependent serotonin transporter (Homo sapiens), sequence (P31645 whole entry, looked up): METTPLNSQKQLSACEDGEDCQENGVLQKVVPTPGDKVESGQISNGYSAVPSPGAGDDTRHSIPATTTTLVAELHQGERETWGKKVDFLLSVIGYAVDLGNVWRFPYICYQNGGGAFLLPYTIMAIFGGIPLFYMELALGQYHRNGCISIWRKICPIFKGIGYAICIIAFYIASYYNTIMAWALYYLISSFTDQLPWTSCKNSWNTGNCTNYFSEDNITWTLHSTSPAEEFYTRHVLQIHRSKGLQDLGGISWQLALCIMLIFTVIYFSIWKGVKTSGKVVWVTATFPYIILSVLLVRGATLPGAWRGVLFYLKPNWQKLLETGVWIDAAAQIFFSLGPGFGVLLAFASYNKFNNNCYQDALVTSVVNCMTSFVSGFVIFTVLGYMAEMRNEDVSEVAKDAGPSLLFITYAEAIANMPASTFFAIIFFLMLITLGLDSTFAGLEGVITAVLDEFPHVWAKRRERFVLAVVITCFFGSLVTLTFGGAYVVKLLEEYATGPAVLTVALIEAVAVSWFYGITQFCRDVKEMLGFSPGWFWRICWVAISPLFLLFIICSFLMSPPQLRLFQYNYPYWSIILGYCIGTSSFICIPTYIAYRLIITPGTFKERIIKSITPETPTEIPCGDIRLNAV
A further test deals with P815B. Briefly: Antitumor activity against mouse P815B cells expressing TDO xenografted in immunized mouse assessed as tumor growth inhibition at 160 mg/kg/day, po administered with water. Type of test: functional, organism-based.
In test [19] the target is Indoleamine 2,3-dioxygenase 1 (Homo sapiens) (UniProt P14902). Briefly: Inhibition of IDO at 10 uM.
Indoleamine 2,3-dioxygenase 1 (Homo sapiens), sequence (P14902 whole entry, looked up): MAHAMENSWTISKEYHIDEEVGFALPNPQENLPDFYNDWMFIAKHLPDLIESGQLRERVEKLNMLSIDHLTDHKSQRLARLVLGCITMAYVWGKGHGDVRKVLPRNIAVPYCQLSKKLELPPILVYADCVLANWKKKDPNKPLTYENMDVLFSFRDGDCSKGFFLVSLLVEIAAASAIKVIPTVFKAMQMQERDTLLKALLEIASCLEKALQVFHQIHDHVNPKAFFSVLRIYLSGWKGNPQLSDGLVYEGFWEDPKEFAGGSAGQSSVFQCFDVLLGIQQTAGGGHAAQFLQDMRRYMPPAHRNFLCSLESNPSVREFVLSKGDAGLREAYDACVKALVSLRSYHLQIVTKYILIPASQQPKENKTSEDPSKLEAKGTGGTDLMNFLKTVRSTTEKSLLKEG

Calls of active or inactive are those of the source. The rule behind the calls is not given here.

5-hydroxytryptamine receptor 7 (Homo sapiens), sequence (P34969 whole entry): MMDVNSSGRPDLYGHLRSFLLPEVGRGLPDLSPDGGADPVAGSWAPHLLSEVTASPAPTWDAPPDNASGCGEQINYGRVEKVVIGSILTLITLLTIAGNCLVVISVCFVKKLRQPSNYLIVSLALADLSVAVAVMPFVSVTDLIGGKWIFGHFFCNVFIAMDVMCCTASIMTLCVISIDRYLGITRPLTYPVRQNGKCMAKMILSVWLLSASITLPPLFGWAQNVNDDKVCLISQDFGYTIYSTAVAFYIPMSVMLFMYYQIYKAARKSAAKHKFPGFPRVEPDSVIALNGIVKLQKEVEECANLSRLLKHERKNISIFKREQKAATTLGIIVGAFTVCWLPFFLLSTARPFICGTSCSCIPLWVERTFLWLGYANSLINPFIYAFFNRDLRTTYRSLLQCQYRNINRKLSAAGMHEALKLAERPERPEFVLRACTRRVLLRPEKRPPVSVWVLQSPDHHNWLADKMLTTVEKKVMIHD
5-hydroxytryptamine receptor 5A (Homo sapiens), sequence (P47898 whole entry): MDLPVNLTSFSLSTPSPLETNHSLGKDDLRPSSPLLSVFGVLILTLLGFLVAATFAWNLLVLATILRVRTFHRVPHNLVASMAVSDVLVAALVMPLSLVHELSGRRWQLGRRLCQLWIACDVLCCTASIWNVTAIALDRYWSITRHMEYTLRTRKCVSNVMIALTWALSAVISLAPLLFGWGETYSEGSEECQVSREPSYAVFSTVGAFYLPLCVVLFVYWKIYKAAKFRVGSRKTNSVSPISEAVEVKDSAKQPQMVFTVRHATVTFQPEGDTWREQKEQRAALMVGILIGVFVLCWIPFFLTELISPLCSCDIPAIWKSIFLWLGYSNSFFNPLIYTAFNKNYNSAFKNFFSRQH
D(2) dopamine receptor (Homo sapiens), sequence (P14416 whole entry): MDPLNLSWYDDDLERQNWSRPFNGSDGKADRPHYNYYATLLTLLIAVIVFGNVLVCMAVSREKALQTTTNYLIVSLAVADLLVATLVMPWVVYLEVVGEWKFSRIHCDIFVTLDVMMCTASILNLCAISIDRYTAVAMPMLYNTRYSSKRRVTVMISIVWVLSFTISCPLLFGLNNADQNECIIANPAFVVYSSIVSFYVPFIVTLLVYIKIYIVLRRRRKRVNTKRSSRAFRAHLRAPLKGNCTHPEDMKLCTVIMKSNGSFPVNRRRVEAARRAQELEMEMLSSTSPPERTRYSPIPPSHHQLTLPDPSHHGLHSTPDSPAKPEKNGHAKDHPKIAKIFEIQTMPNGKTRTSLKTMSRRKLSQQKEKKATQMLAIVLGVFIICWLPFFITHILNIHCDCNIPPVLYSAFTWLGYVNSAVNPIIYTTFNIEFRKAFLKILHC

Broadly, the inhibition is the percentage by which the read-out fell short of the control. Lower therefore signals a response near the control. As for `Fc1ccc2c(/C=C/c3nnn[nH]3)c[nH]c2c1`, the inhibition is below 10% in [1]; below 10% in test [2]; 14% in test [3]; below 10% in test [4]; below 10% in test [5]; below 10% in [6]. For the same molecule, the inhibition in [7], in test [8], in [9], in test [10], in test [11] and in test [12] was below 10% throughout. Moreover, the inhibition in test [13] was below 10%; in [14], below 10%; in [15] it was below 10%; in test [16], below 10%; in test [17], below 10%; in test [18] it was 26%. The molecule further showed an inhibition in test [19] below 10%. In addition, the outcome in the test on P815B was Active.
